Source: ChEMBL document CHEMBL1159050, “2-Arylbenzoxazoles as CETP inhibitors: substitution and modification of the alpha-alkoxyamide moiety” (Bioorg Med Chem Lett, 2010)

Tested on: not listed separately
Test: Half life in mouse
Format: ADME, organism-based
Conditions: in vivo

half-life [h]	SMILES
7.3	CC(OCCNc1ccc(-c2nc3cc(C#N)ccc3o2)cc1)(C(F)(F)F)C(F)(F)F

Tested on: not listed separately
Test: Clearance in mouse
Format: ADME, organism-based
Conditions: in vivo

clearance [L/h/kg]	SMILES
1.86	CC(OCCNc1ccc(-c2nc3cc(C#N)ccc3o2)cc1)(C(F)(F)F)C(F)(F)F

Tested on: not listed separately
Test: Oral bioavailability in mouse
Format: ADME, organism-based
Conditions: in vivo

bioavailability [%]	SMILES
4	N#Cc1ccc2oc(-c3ccc(NC(=O)COC(C(F)(F)F)C(F)(F)F)cc3)nc2c1
30	CC(C)OCCNc1ccc(-c2nc3cc(C#N)ccc3o2)cc1
20	CC(OCCNc1ccc(-c2nc3cc(C#N)ccc3o2)cc1)(C(F)(F)F)C(F)(F)F

Biological target: T1, Cholesteryl ester transfer protein (Homo sapiens, UniProt P11597)
T1 sequence (P11597 whole entry): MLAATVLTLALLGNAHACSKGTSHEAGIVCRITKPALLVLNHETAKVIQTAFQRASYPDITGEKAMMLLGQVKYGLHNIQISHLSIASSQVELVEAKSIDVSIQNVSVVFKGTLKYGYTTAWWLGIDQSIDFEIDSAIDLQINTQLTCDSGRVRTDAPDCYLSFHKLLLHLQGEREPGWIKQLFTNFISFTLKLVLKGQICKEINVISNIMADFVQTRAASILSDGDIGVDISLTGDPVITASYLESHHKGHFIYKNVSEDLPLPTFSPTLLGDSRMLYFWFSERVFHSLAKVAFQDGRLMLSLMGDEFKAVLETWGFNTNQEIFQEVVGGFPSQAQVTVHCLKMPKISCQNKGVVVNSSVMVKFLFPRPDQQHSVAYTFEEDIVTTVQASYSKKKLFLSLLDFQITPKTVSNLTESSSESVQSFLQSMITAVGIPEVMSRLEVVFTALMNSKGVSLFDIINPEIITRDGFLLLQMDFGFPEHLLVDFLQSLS
Test: Inhibition of CETP assessed as cholesteryl ester transfer activity
Conditions: not given

SMILES	IC50 [µM]
O=C(Nc1ccc(-c2nc3cc(Cl)ccc3o2)cc1)OCc1ccccc1	> 30
N#Cc1ccc2oc(-c3ccc(NC(=O)COC(C(F)(F)F)C(F)(F)F)cc3)nc2c1	0.094
CC(C)(OCC(=O)Nc1ccc(-c2nc3cc(C#N)ccc3o2)cc1)C(F)(F)F	0.051
N#Cc1ccc2oc(-c3ccc(NC(=O)COC(C(F)(F)F)(C(F)(F)F)C(F)(F)F)cc3)nc2c1	0.151
CC(C)(C)OCC(=O)Nc1ccc(-c2nc3cc(C#N)ccc3o2)cc1	0.132
O=C(COc1ccc([N+](=O)[O-])cc1)Nc1ccc(-c2nc3cc(Cl)ccc3o2)cc1	2.21
O=C(CNc1ccccc1)Nc1ccc(-c2nc3cc(Cl)ccc3o2)cc1	8.13
CC(OCC(=O)Nc1ccc(-c2nc3cc(C#N)ccc3o2)cc1)(C(F)(F)F)C(F)(F)F	0.044
Cc1ccccc1OCC(=O)N(C)c1ccc(-c2nc3cc(Cl)ccc3o2)cc1	> 30
CC(Oc1ccccc1)C(=O)Nc1ccc(-c2nc3cc(Cl)ccc3o2)cc1 (stereo not drawn)	> 30
N#Cc1ccc(OCC(=O)Nc2ccc(-c3nc4cc(Cl)ccc4o3)cc2)cc1	> 30
O=C(CSc1ccccc1)Nc1ccc(-c2nc3cc(Cl)ccc3o2)cc1	> 30
O=C(NCc1ccccc1)Nc1ccc(-c2nc3cc(Cl)ccc3o2)cc1	> 30
N#Cc1ccc2oc(-c3ccc(NC(=O)COCc4ccccc4C(F)(F)F)cc3)nc2c1	0.505
CCOCC(=O)Nc1ccc(-c2nc3cc(C#N)ccc3o2)cc1	1.38
CC(C)OCC(=O)Nc1ccc(-c2nc3cc(C#N)ccc3o2)cc1	0.613
O=C(COc1cccc(C(F)(F)F)c1)Nc1ccc(-c2nc3cc(Cl)ccc3o2)cc1	1.77
O=C(CNCc1ccccc1)Nc1ccc(-c2nc3cc(Cl)ccc3o2)cc1	18.1
c1ccc(OCCNc2ccc(-c3nc4ccccc4o3)cc2)cc1	75.9
CC(C)OCCNc1ccc(-c2nc3cc(C#N)ccc3o2)cc1	0.89
CC(OCCNc1ccc(-c2nc3cc(C#N)ccc3o2)cc1)(C(F)(F)F)C(F)(F)F	0.151
O=C(COc1ccc(C(F)(F)F)cc1)Nc1ccc(-c2nc3cc(Cl)ccc3o2)cc1	0.81
Cc1ccccc1CNC(=O)c1ccc(-c2nc3cc(Cl)ccc3o2)cc1	> 30
Cc1ccccc1COCC(=O)Nc1ccc(-c2nc3cc(C#N)ccc3o2)cc1	1.18
O=S(=O)(Cc1ccccc1)Nc1ccc(-c2nc3cc(Cl)ccc3o2)cc1	> 30

Other lines, results leading:

IC50 [µM]	SMILES
0.13	Cc1ccccc1OCC(=O)Nc1ccc(-c2nc3cc(C#N)ccc3o2)cc1
1.11	Cc1ccccc1OCC(=O)Nc1ccc(-c2nc3cc(Cl)ccc3o2)cc1
4.57	COc1ccc(OCC(=O)Nc2ccc(-c3nc4cc(Cl)ccc4o3)cc2)cc1
4.23	O=C(COc1ccccc1)Nc1ccc(-c2nc3cc(Cl)ccc3o2)cc1
12.9	COc1cccc(OCC(=O)Nc2ccc(-c3nc4cc(Cl)ccc4o3)cc2)c1
26.5	O=C(COc1cccc([N+](=O)[O-])c1)Nc1ccc(-c2nc3cc(Cl)ccc3o2)cc1
> 30	Cc1ccc(OCC(=O)Nc2ccc(-c3nc4cc(Cl)ccc4o3)cc2)cc1
2.59	CCc1ccccc1OCC(=O)Nc1ccc(-c2nc3cc(Cl)ccc3o2)cc1
> 30	N#Cc1cccc(OCC(=O)Nc2ccc(-c3nc4cc(Cl)ccc4o3)cc2)c1
2.7	CCCc1ccccc1OCC(=O)Nc1ccc(-c2nc3cc(Cl)ccc3o2)cc1
6.39	O=C(COc1ccccc1C(F)(F)F)Nc1ccc(-c2nc3cc(Cl)ccc3o2)cc1
2.15	O=C(COc1ccccc1Cl)Nc1ccc(-c2nc3cc(Cl)ccc3o2)cc1
1.99	O=C(COc1cccc(F)c1)Nc1ccc(-c2nc3cc(Cl)ccc3o2)cc1
1.77	O=C(COc1ccc(F)cc1)Nc1ccc(-c2nc3cc(Cl)ccc3o2)cc1
6.81	O=C(COc1ccc(Cl)cc1)Nc1ccc(-c2nc3cc(Cl)ccc3o2)cc1
1.25	O=C(COc1cccc(Cl)c1)Nc1ccc(-c2nc3cc(Cl)ccc3o2)cc1
6.54	O=C(COCc1ccccc1)Nc1ccc(-c2nc3cc(Cl)ccc3o2)cc1
> 30	N#Cc1ccccc1OCC(=O)Nc1ccc(-c2nc3cc(Cl)ccc3o2)cc1
> 30	O=C(COc1ccccc1F)Nc1ccc(-c2nc3cc(Cl)ccc3o2)cc1
> 30	COc1ccccc1OCC(=O)Nc1ccc(-c2nc3cc(Cl)ccc3o2)cc1
4.4	O=C(COc1ccccc1[N+](=O)[O-])Nc1ccc(-c2nc3cc(Cl)ccc3o2)cc1
19.3	Cc1cccc(OCC(=O)Nc2ccc(-c3nc4cc(Cl)ccc4o3)cc2)c1
> 30	O=C(CCc1ccccc1)Nc1ccc(-c2nc3cc(Cl)ccc3o2)cc1
